Laboratory results as given in PubChem BioAssay AID602427 (Sanford-Burnham Center for Chemical Genomics, 2012).
Activity calls are given as the source filed them.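 How the source made its calls: active means EC50 at or below 20 micromolar; inactive means the rest.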

What follows are compounds tested against Neurotensin receptor type 1 (Homo sapiens) (UniProt P30989) (assay: NTSR1 activation via enzyme-fragment complementation – cell-based, luminescence, CHO-K1 NTSR1 PathHunter, orthogonal assay for NTR1 agonist project, SAR follow-up (AID 602427;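 further: agonist potency for NTR1 activation where higher luminescence means more arrestin recruitment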)). Conditions: CHO-K1 NTSR1 PathHunter beta-arrestin.
Neurotensin receptor type 1 (Homo sapiens), sequence (P30989 whole entry, looked up, the tested form may be a part): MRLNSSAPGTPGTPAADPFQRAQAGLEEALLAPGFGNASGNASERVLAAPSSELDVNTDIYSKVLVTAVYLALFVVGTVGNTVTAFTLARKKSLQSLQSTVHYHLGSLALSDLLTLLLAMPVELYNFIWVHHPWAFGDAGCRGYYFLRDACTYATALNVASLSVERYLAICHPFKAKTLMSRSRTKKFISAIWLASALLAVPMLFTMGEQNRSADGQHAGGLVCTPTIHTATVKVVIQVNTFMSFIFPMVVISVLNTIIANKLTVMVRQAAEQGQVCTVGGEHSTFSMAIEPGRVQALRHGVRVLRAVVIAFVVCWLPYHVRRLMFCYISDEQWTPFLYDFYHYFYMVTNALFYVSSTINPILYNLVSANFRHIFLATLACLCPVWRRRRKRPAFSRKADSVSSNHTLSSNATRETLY
In the case of `COc1ccc(-c2nnc3c4ccccc4n(Cc4ccncc4)cc2-3)cc1`, the EC50 is reported as > 33 µM (inactive). In the case of `COc1cc2c3nnc(-c4ccc(C)c(C)c4)c-3cn(Cc3ccccc3)c2cc1OC`, the EC50 is reported as “inactive”. In the case of `Cc1ccc(-c2nnc3c4cc5c(cc4n(Cc4ccc(F)cc4)cc2-3)OCO5)cc1`, the EC50 is reported as > 33 µM (inactive). In the case of `COc1cc2nc(C3CCC3)nc(N3CCN(c4ccccc4)CC3)c2cc1OC`, the EC50 is reported as > 33 µM (inactive). `Cc1ccc(-c2nnc3c4cc5c(cc4n(Cc4ccccc4)cc2-3)OCO5)cc1C` was tested, and the EC50 was > 33 µM (inactive). With `COc1ccc(Cn2c(SCc3cc(C)ccc3C)nc3cc(OC)c(OC)cc3c2=N)cc1Cl` the EC50 was > 33 µM (inactive). For `COc1ccc2c(c1)c(=O)c(C(=O)c1ccc(F)cc1)cn2Cc1ccccc1`, the EC50 was > 33 µM (inactive). In the case of `COc1ccc(Cn2cc3c(-c4ccc(F)cc4)nnc-3c3cc(OC)c(OC)cc32)cc1`, the EC50 is reported as > 33 µM (inactive). With `COc1ccc(N2CCN(c3nc(C4CCC4)nc4cc(OC)c(OC)cc34)CC2)cc1` the EC50 was > 33 µM (inactive). For `Cc1ccc(-n2ncc3c(N4CCN(c5ccccc5F)CC4)ncnc32)c(C)c1`, the EC50 was > 33 µM (inactive). With `COc1cccc(OC)c1-c1nc(C(=O)N[C@@H](CC(C)C)C(=O)O)cn1-c1ccncc1` the EC50 was > 33 µM (inactive). In the case of `COc1ccccc1-c1nc(C(=O)N[C@@H](CC(C)C)C(=O)O)cn1-c1ccnc2ccccc12`, the EC50 is reported as > 33 µM (inactive). `COc1ccc(-c2nnc3c4ccccc4n(Cc4ccc(OC(F)(F)F)cc4)cc2-3)cc1` was tested, and the EC50 was > 33 µM (inactive). In the case of `CC(=O)c1ccc(N2CCN(c3ncnc4c3cnn4-c3ccc(C)cc3C)CC2)cc1`, the EC50 is reported as > 33 µM (inactive). For `Cc1ccc(-n2ncc3c(N4CCN(c5ccccc5Cl)CC4)ncnc32)c(C)c1`, the EC50 was > 33 µM (inactive). With `Cc1ccc(Cn2cc3c(-c4ccc(F)cc4)nnc-3c3ccccc32)cc1` the EC50 was > 33 µM (inactive). In the case of `Cc1ccc(-n2ncc3c(N4CCN(c5ccccc5)CC4)ncnc32)cc1C`, the EC50 is reported as > 33 µM (inactive). Work on `COc1cccc(OC)c1-c1nc(C(=O)N[C@@H](CC(C)C)C(=O)O)cn1-c1ccnc2cc(Cl)ccc12` yielded an EC50 of 6.1 µM. `CN(C)S(=O)(=O)c1ccc(-c2csc(N/N=C/c3cccs3)n2)cc1` was tested, and the EC50 was > 33 µM (inactive). In the case of `CCN(CC)c1ccc(/C=N/Nc2nc(-c3ccc(S(=O)(=O)N(C)C)cc3)cs2)cc1`, the EC50 is reported as > 33 µM (inactive). For `CC(C)C[C@H](NC(=O)c1nc(-c2ccnc3ccccc23)c(-c2ccccc2)s1)C(=O)O`, the EC50 was > 33 µM (inactive). `COc1ccc(-c2nnc3c4ccccc4n(Cc4ccccc4)cc2-3)cc1` was tested, and the EC50 was > 33 µM (inactive). With `Clc1ccccc1-n1ncc2c(N3CCN(c4ccccc4)CC3)ncnc21` the EC50 was > 33 µM (inactive). In the case of `O=C(O)c1nc(-c2ccnc3ccccc23)c(-c2ccccc2)s1`, the EC50 is reported as > 33 µM (inactive). In the case of `COc1cc2nc(C3CCCC3)nc(N3CCN(c4ccccc4OC)CC3)c2cc1OC`, the EC50 is reported as “inactive”. `CCc1ccc(-c2nnc3c4cc(OC)c(OC)cc4n(Cc4ccccc4)cc2-3)cc1` was tested, and the EC50 was > 33 µM (inactive). For `COc1ccccc1N1CCN(c2ncnc3c2cnn3-c2ccc(C)cc2C)CC1`, the EC50 was “inactive”. `c1ccc(N2CCN(c3ncnc4c3cnn4-c3ccccc3)CC2)cc1` was tested, and the EC50 was > 33 µM (inactive). `CC(C)C[C@H](NC(=O)c1cn(-c2ccnc3ccccc23)c2c(OCc3ccccc3)cccc12)C(=O)O` was tested, and the EC50 was “inactive”. With `COc1cc2c3nnc(-c4ccc(C)c(C)c4)c-3cn(Cc3ccc(F)cc3)c2cc1OC` the EC50 was > 33 µM (inactive). `COc1cc2c3nnc(-c4ccc(F)cc4)c-3cn(Cc3cccc(N(C)C)c3)c2cc1OC` was tested, and the EC50 was > 33 µM (inactive). With `CCCSc1nc2cc(OC)c(OC)cc2c(=N)n1Cc1cccc(C(F)(F)F)c1` the EC50 was > 33 µM (inactive). `COc1cc2nc(-c3ccccc3)nc(N3CCN(c4ccccc4)CC3)c2cc1OC` was tested, and the EC50 was > 33 µM (inactive). For `COc1cc2c(=O)c(C(=O)c3ccc(F)cc3)cn(Cc3ccc(Cl)cc3)c2cc1OC`, the EC50 was > 33 µM (inactive). `COc1ccc2c(c1)c1nnc(-c3ccc(F)cc3)c-1cn2Cc1ccccc1` was tested, and the EC50 was > 33 µM (inactive). In the case of `CCOc1ccc(-c2nnc3c4cc(OC)c(OC)cc4n(Cc4ccccc4)cc2-3)cc1`, the EC50 is reported as “inactive”. For `COc1cc2nc(-c3ccccc3)nc(N3CCN(c4ccccc4F)CC3)c2cc1OC`, the EC50 was > 33 µM (inactive). For `COc1cc2c3nnc(-c4ccc(F)cc4)c-3cn(Cc3ccc(Cl)cc3)c2cc1OC`, the EC50 was > 33 µM (inactive). In the case of `Cc1ccc(-n2ncc3c(N4CCN(c5ccc(F)cc5)CC4)ncnc32)c(C)c1`, the EC50 is reported as > 33 µM (inactive). In the case of `COc1cc2c3nnc(-c4ccccc4)c-3cn(Cc3ccc(C)cc3)c2cc1OC`, the EC50 is reported as > 33 µM (inactive). With `Cc1cccc(-n2ncc3c(N4CCN(c5ccccc5)CC4)ncnc32)c1` the EC50 was > 33 µM (inactive). `Cc1ccc(-n2ncc3c(N4CCN(c5ccc(Cl)c(Cl)c5)CC4)ncnc32)c(C)c1` was tested, and the EC50 was > 33 µM (inactive). For `COc1cc2c(=O)c(C(=O)c3ccc(F)cc3)cn(CCc3ccccc3)c2cc1OC`, the EC50 was > 33 µM (inactive). For `COc1cc2c3nnc(-c4ccc(F)cc4)c-3cn(Cc3ccc(F)cc3)c2cc1OC`, the EC50 was > 33 µM (inactive). In the case of `COc1ccc2c3nnc(-c4ccc(C)cc4)c-3cn(Cc3ccc(F)cc3)c2c1`, the EC50 is reported as > 33 µM (inactive). For `COc1ccc(Cn2c(SCc3ccc(C)cc3)nc3cc(OC)c(OC)cc3c2=N)cc1Cl`, the EC50 was > 33 µM (inactive). `Clc1ccc(-c2nnc3c4cc5c(cc4n(Cc4ccccc4)cc2-3)OCO5)cc1` was tested, and the EC50 was > 33 µM (inactive). In the case of `CCOC(=O)c1cc(-c2c(OC)cccc2OC)n(-c2ccnc3cc(Cl)ccc23)n1`, the EC50 is reported as > 33 µM (inactive). With `COc1cc2c3nnc(-c4ccc(F)cc4)c-3cn(Cc3ccccc3N(C)C)c2cc1OC` the EC50 was > 33 µM (inactive). `COc1ccc2c(N3CCN(c4ccccc4OC)CC3)nc(C3CCC3)nc2c1` was tested, and the EC50 was > 33 µM (inactive). For `COc1ccc2c(c1)c1nnc(-c3ccc(F)cc3)c-1cn2Cc1ccc(F)cc1`, the EC50 was > 33 µM (inactive). With `CCn1cc2c(-c3ccc(OC)cc3)nnc-2c2ccccc21` the EC50 was > 33 µM (inactive). With `COc1ccc(-c2nnc3c4ccccc4n(Cc4ccc(F)cc4)cc2-3)cc1` the EC50 was > 33 µM (inactive). For `COc1ccc(Cn2c(SCc3ccccc3C)nc3cc(OC)c(OC)cc3c2=N)cc1Cl`, the EC50 was > 33 µM (inactive). For `CCCSc1nc2cc(OC)c(OC)cc2c(=N)n1Cc1ccccc1Cl`, the EC50 was > 33 µM (inactive). In the case of `COc1cc2c3nnc(-c4ccc(F)cc4)c-3cn(CC3CC3)c2cc1OC`, the EC50 is reported as > 33 µM (inactive). For `Fc1ccc(Cn2cc3c(-c4ccc(Cl)cc4)nnc-3c3cc4c(cc32)OCO4)cc1`, the EC50 was > 33 µM (inactive). `COc1cc2c3nnc(-c4ccc(F)cc4)c-3cn(Cc3cccnc3)c2cc1OC` was tested, and the EC50 was > 33 µM (inactive). With `COc1ccccc1-c1nc(C(=O)N[C@@H](CC(C)C)C(=O)O)cn1-c1ccnc2cc(Cl)ccc12` the EC50 was > 33 µM (inactive). `Cc1cc(Cl)ccc1-n1ncc2c(N3CCN(c4ccccc4)CC3)ncnc21` was tested, and the EC50 was > 33 µM (inactive). `Fc1ccc(-n2ncc3c(N4CCN(c5ccccc5)CC4)ncnc32)cc1` was tested, and the EC50 was > 33 µM (inactive). With `COc1ccc(Cn2cc(C(=O)c3ccc(F)cc3)c(=O)c3cc(OC)c(OC)cc32)cc1` the EC50 was > 33 µM (inactive). With `CCOc1cc2nc(-c3ccc(OC)c(OC)c3)nc(N3CCN(c4ccccc4)CC3)c2cc1OC` the EC50 was > 33 µM (inactive). With `COc1ccc(C(=O)c2cn(Cc3ccc(Cl)cc3)c3ccccc3c2=O)cc1` the EC50 was > 33 µM (inactive). In the case of `Cc1ccc(-n2ncc3c(N4CCN(c5cccc(Cl)c5)CC4)ncnc32)c(C)c1`, the EC50 is reported as > 33 µM (inactive). For `COc1cc2c3nnc(-c4ccc(F)cc4)c-3cn(Cc3ccc(N(C)C)cc3)c2cc1OC`, the EC50 was > 33 µM (inactive). `N=c1c2ccccc2nc(SCc2ccc(Cl)cc2)n1Cc1ccccc1` was tested, and the EC50 was > 33 µM (inactive).
